# Results reported in ChEMBL document CHEMBL1201862, “PubChem BioAssay data set” (2004).
#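 The compound was tested at five concentrations on cells cultured in 96-well plates, with a 48-hour exposure period. GI50 = concentration required for 50% inhibition of growth.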 Activity calls are given as the source filed them. Cut-off read from the data, not from the text of the source: active = GI50 up to about 1.1 µM and inactive = higher.
# Tests used:
# Test in all cases: NCI anticancer screen, dose series, 48 h
# [1] = tested on: 786-0
# [2] = tested on: COLO 205
# [3] = tested on: DU-145
# [4] = tested on: HL-60
# [5] = tested on: HOP-92
# [6] = tested on: KM12
# [7] = tested on: M14
# [8] = tested on: MDA-MB-231
# [9] = tested on: NCI-H226
# [10] = tested on: NCI-H23
# [11] = tested on: NCI-H522
# [12] = tested on: OVCAR-4
# [13] = tested on: PC-3
# [14] = tested on: RPMI-8226
# [15] = tested on: SF-295
# [16] = tested on: SK-MEL-28
# [17] = tested on: SW-620
# [18] = tested on: T47D
# [19] = tested on: HCC 2998
# [20] = tested on: SR
Compound,GI50 [1],GI50 [2],GI50 [3],GI50 [4],GI50 [5],GI50 [6],GI50 [7],GI50 [8],GI50 [9],GI50 [10],GI50 [11],GI50 [12],GI50 [13],GI50 [14],GI50 [15],GI50 [16],GI50 [17],GI50 [18],GI50 [19],GI50 [20]
CCOC(=O)c1ccc(-c2cc(C)[nH]n2)[nH]1,> 100 µM (inactive),> 100 µM (inactive),> 100 µM (inactive),63.5 µM (inactive),> 100 µM (inactive),62.5 µM (inactive),> 100 µM (inactive),> 100 µM (inactive),> 100 µM (inactive),> 100 µM (inactive),> 100 µM (inactive),> 100 µM (inactive),> 100 µM (inactive),> 100 µM (inactive),> 100 µM (inactive),> 100 µM (inactive),> 100 µM (inactive),85.5 µM (inactive),,
CC(C)(C)NCc1cc(C(C)(C)C)cc(-c2ccc(Cl)cc2)c1O,13.9 µM (inactive),10.7 µM (inactive),11.7 µM (inactive),5.33 µM (inactive),14.3 µM (inactive),13.2 µM (inactive),15 µM (inactive),11.2 µM (inactive),,12.6 µM (inactive),11 µM (inactive),16.5 µM (inactive),,9.53 µM (inactive),17.3 µM (inactive),13.8 µM (inactive),,,14.7 µM (inactive),10.9 µM (inactive)
Cc1cc(S(=O)(=O)Nc2nc(N)n[nH]2)c(SCC(=O)O)cc1Cl,> 10 µM (inactive),> 10 µM (inactive),> 10 µM (inactive),> 10 µM (inactive),> 10 µM (inactive),> 10 µM (inactive),> 10 µM (inactive),,> 10 µM (inactive),> 10 µM (inactive),> 10 µM (inactive),> 10 µM (inactive),> 10 µM (inactive),> 10 µM (inactive),> 10 µM (inactive),> 10 µM (inactive),> 10 µM (inactive),> 10 µM (inactive),> 10 µM (inactive),> 10 µM (inactive)
OCC1(CNc2cc(Cl)ncn2)CCC1,> 100 µM (inactive),> 100 µM (inactive),> 100 µM (inactive),> 100 µM (inactive),> 100 µM (inactive),> 100 µM (inactive),,> 100 µM (inactive),> 100 µM (inactive),> 100 µM (inactive),> 100 µM (inactive),> 100 µM (inactive),> 100 µM (inactive),> 100 µM (inactive),> 100 µM (inactive),> 100 µM (inactive),> 100 µM (inactive),,,> 100 µM (inactive)
O=C(NCc1ccccc1)c1cnc(Cl)cn1,> 100 µM (inactive),> 100 µM (inactive),> 100 µM (inactive),> 100 µM (inactive),13.7 µM (inactive),> 100 µM (inactive),60.8 µM (inactive),85.5 µM (inactive),> 100 µM (inactive),23.3 µM (inactive),2.12 µM (inactive),16.7 µM (inactive),,44.2 µM (inactive),> 100 µM (inactive),> 100 µM (inactive),> 100 µM (inactive),74 µM (inactive),17.3 µM (inactive),20.7 µM (inactive)
CC(=O)O[C@@]1(C)[C@@H](C)C(=O)O[C@@H]2CCN3CC=C(COC(=O)[C@]1(C)O)[C@H]23,> 100 µM (inactive),> 100 µM (inactive),,> 100 µM (inactive),> 100 µM (inactive),> 100 µM (inactive),> 100 µM (inactive),,> 100 µM (inactive),> 100 µM (inactive),> 100 µM (inactive),> 100 µM (inactive),,> 100 µM (inactive),> 10 µM (inactive),> 100 µM (inactive),> 100 µM (inactive),,> 100 µM (inactive),> 100 µM (inactive)
Cc1n[n+]([O-])c(C)cc1[N+](=O)[O-],27.9 µM (inactive),13.5 µM (inactive),21.7 µM (inactive),,16.8 µM (inactive),,15.7 µM (inactive),18.2 µM (inactive),26.9 µM (inactive),16 µM (inactive),12.3 µM (inactive),19.4 µM (inactive),23.8 µM (inactive),0.552 µM (active),,18 µM (inactive),15 µM (inactive),17.4 µM (inactive),12.5 µM (inactive),
COc1cccc2nc3c(C(=O)NCCN(C)C)cccc3nc12,10.6 µM (inactive),5.2 µM (inactive),,4.51 µM (inactive),6.17 µM (inactive),7.19 µM (inactive),13.4 µM (inactive),,5.27 µM (inactive),11.8 µM (inactive),11.9 µM (inactive),8.77 µM (inactive),,6.49 µM (inactive),10.1 µM (inactive),13.8 µM (inactive),5.42 µM (inactive),,10.8 µM (inactive),3.38 µM (inactive)
COc1cc2c(c(OC)c1OC)-c1ccc(SC)c(=O)cc1[C@@H](OC(C)=O)CC2,< 0.01 µM (active),< 0.01 µM (active),< 0.01 µM (active),< 0.01 µM (active),> 100 µM (inactive),< 0.01 µM (active),< 0.01 µM (active),< 0.01 µM (active),< 0.01 µM (active),< 0.01 µM (active),< 0.01 µM (active),> 100 µM (inactive),< 0.01 µM (active),,< 0.01 µM (active),< 0.01 µM (active),< 0.01 µM (active),> 100 µM (inactive),< 0.01 µM (active),
COC(=O)C1(C(=O)OC)CC2=C(S(=O)(=O)c3ccccc3)C[C@H](C#N)[C@H]2C1,> 100 µM (inactive),68.5 µM (inactive),> 100 µM (inactive),> 100 µM (inactive),69.8 µM (inactive),> 100 µM (inactive),> 100 µM (inactive),> 100 µM (inactive),> 100 µM (inactive),> 100 µM (inactive),46.3 µM (inactive),> 100 µM (inactive),> 100 µM (inactive),,> 100 µM (inactive),> 100 µM (inactive),> 100 µM (inactive),57.5 µM (inactive),,
[N-]=[N+]=C1C(=O)C2CC3CC1CC2C3 (stereo not drawn),> 100 µM (inactive),> 100 µM (inactive),,> 100 µM (inactive),> 100 µM (inactive),> 100 µM (inactive),> 100 µM (inactive),,> 100 µM (inactive),> 100 µM (inactive),> 100 µM (inactive),> 100 µM (inactive),,> 100 µM (inactive),> 100 µM (inactive),> 100 µM (inactive),81.1 µM (inactive),,> 100 µM (inactive),> 100 µM (inactive)
C/C(=C/C(=O)Nn1c(Cc2ccccc2)n[nH]c1=O)C(=O)O,> 100 µM (inactive),> 100 µM (inactive),> 100 µM (inactive),> 100 µM (inactive),,> 100 µM (inactive),> 100 µM (inactive),> 100 µM (inactive),> 100 µM (inactive),> 100 µM (inactive),> 100 µM (inactive),> 100 µM (inactive),> 100 µM (inactive),> 100 µM (inactive),> 100 µM (inactive),> 100 µM (inactive),> 100 µM (inactive),> 100 µM (inactive),> 100 µM (inactive),
C/C(O)=C/C(=O)c1[nH]c(C(=O)O)cc1C1CCN(Cc2ccccc2)C1=O (stereo not drawn),21 µM (inactive),18 µM (inactive),18.3 µM (inactive),,20.8 µM (inactive),29.9 µM (inactive),15.3 µM (inactive),33.2 µM (inactive),,17.9 µM (inactive),23.7 µM (inactive),34 µM (inactive),32.7 µM (inactive),20.7 µM (inactive),17.9 µM (inactive),23.2 µM (inactive),29.5 µM (inactive),15.7 µM (inactive),13.2 µM (inactive),
O=CC1C(=O)Nc2nc3ccccc3n2C1c1ccccc1 (stereo not drawn),12.4 µM (inactive),11.4 µM (inactive),12.7 µM (inactive),20.6 µM (inactive),12.4 µM (inactive),14.6 µM (inactive),16 µM (inactive),15.4 µM (inactive),17.1 µM (inactive),19.2 µM (inactive),12.8 µM (inactive),24.7 µM (inactive),18.4 µM (inactive),16.3 µM (inactive),20.9 µM (inactive),19.6 µM (inactive),17.8 µM (inactive),< 0.01 µM (active),,
CN1C(=O)C(C)(C)C2(SC(C)(C)C2(C)C)N(C)C1=S (stereo not drawn),> 100 µM (inactive),> 100 µM (inactive),,96.2 µM (inactive),27.8 µM (inactive),> 100 µM (inactive),> 100 µM (inactive),,> 100 µM (inactive),> 100 µM (inactive),86.7 µM (inactive),> 100 µM (inactive),,> 100 µM (inactive),> 100 µM (inactive),> 100 µM (inactive),> 100 µM (inactive),,> 100 µM (inactive),55.3 µM (inactive)
CC1=CC2CC(C)=C(CC[C@]3(C)CC[C@H]([C@@H](C)C(=O)O)OO3)C(C)(C)C2CC1 (stereo partly drawn),1.45 µM (inactive),0.403 µM (active),,0.0863 µM (active),0.136 µM (active),0.128 µM (active),1.31 µM (inactive),,1.85 µM (inactive),0.9 µM (active),0.171 µM (active),0.442 µM (active),,0.304 µM (active),1.36 µM (inactive),1.57 µM (inactive),0.177 µM (active),,0.292 µM (active),0.195 µM (active)
